Drawing on patent US20230399327A1, “HIGH ACTIVITY HPK1 KINASE INHIBITOR” (ADLAI NORTYE BIOPHARMA CO., LTD., priority 2020, published 2023), this text covers IC50 for 13 compounds.

What is called IC50 is the concentration that inhibits the measured activity by half. Read a high IC50 as lower potency.

Sequence of HPK1 kinase (Q92918 whole entry): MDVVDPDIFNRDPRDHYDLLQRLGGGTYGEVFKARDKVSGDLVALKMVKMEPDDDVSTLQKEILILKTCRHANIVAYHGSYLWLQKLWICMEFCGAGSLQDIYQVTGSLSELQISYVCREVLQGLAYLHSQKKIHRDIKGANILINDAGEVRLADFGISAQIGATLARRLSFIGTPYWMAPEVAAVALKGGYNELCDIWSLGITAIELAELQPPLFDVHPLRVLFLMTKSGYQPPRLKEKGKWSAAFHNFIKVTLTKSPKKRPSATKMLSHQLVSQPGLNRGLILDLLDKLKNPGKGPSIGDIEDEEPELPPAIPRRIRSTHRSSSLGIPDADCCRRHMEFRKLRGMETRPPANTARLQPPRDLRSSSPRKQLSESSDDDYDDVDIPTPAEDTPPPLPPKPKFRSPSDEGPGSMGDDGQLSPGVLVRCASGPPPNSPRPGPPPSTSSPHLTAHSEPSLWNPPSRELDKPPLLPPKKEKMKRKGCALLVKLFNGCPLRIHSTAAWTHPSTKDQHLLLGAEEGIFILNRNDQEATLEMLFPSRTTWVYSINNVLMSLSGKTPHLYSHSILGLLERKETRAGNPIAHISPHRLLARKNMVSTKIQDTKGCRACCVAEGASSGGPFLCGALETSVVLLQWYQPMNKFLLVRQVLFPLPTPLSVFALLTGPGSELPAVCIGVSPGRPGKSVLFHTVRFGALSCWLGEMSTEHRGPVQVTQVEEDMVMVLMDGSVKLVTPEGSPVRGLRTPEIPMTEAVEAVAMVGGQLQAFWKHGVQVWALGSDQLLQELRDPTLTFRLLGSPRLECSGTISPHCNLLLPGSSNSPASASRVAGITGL

This assay concerns the target HPK1 kinase (Homo sapiens (Human), UniProt Q92918). As to the kind of experiment: HPK1 kinase activity inhibition (ADP-Glo Kinase Assay). The format is biochemical. Particulars: HPK1, MBP substrate, ATP, 25° C. 60 min. The protocol: Test Example 1: Detection of Compound's Ability to Inhibit HPK1 Kinase Activity (Method 1)
The specific operation is as follows: configure the enzymatic reaction system buffer (10 mM MOPS, pH 7.2, 5 mM β-glycerol-phosphate, 10 mM MgCl2, 0.8 mM EDTA, 2 mM EGTA, 0.1 mM DTT); the test compound (1 mM the compound stock solution in DMSO) was diluted with buffer to the highest concentration of 60 uM (containing 6% DMSO), and the compound with a concentration of 60 μM was initially diluted 5 times with a buffer containing 6% DMSO for a total of 8 points of gradient concentration; then dilute HPK1 kinase to 30 nM in buffer. Add 2 μl of HPK1 kinase diluent to each well of a Greiner 384-well microplate (Cat. No. 784075), and add 2 μl of buffer to the control well; add 1 μl of the diluted compound to the reaction well after brief centrifugation, and add 1 μl buffer solution containing 6% DMSO to the control well; after short centrifugation, place in a 25° C. constant temperature incubator (Shanghai Yiheng Scientific Instrument Co., Ltd., Cat. No.: LRH-150) and incubate for 20 minutes. Add 3 μl of reaction substrate (10 μM MBP and 20 μM ATP dissolved in distilled water) to each well, briefly centrifuge and incubate in a constant temperature incubator at 25° C. for 60 min, and use ADP-Glo Kinase Assay Kit to detect the enzymatic reaction activity, ADP-Glo Kinase Assay Kit detection is carried out according to the operating instructions of the kit. Data are described using the half maximal inhibitory concentration IC50 of the compound.
On the technique in general: ADP-Glo first removes unused ATP, then detects ADP through luciferase.
Regarding `COc1nc2c(cc1Nc1ncc3cccc(-c4ccc5c(cnn5C)c4)c3n1)CN(C)CC2` [Example 3, N-(2-methoxy-6-methyl-5,6,7,8-tetrahydro-1,6-naphthyridin-3-yl)-8-(1-methyl-1H-indazole-5-yl)quinazolin-2-amine], the IC50 was under 0.1 nM.
Turning to `COc1nc2c(cc1Nc1ncc3cccc(-c4ccccc4F)c3n1)CN(C)CC2` [Example 4, 8-(2-fluorophenyl)-N-(2-methoxy-6-methyl-5,6,7,8-tetrahydro-1,6-naphthyridin-3-yl)quinazoline-2-amine], the concentration for half-maximal inhibition (IC50) is under 0.1 nM.
The compound `COc1ccccc1-c1cccc2cnc(Nc3cc4c(nc3OC)CCN(C)C4)nc12` [Example 5, N-(2-methoxy-6-methyl-5,6,7,8-tetrahydro-1,6-naphthyridin-3-yl)-8-(2-methoxyphenyl)quinazole Lin-2-amine] showed a half-maximal inhibitory concentration (IC50) of under 0.1 nM.
In turn, `COc1cccc(-c2cccc3cnc(Nc4cc5c(nc4OC)CCN(C)C5)nc23)c1` [Example 6, N-(2-methoxy-6-methyl-5,6,7,8-tetrahydro-1,6-naphthyridin-3-yl)-8-(3-methoxyphenyl)quinazole Lin-2-amine] showed an IC50 of under 0.1 nM.
The compound `COc1nc2c(cc1Nc1ncc3cccc(C4=CCOCC4)c3n1)CN(C)CC2` [Example 7, 8-(3,6-dihydro-2H-pyran-4-yl)-N-(2-methoxy-6-methyl-5,6,7,8-tetrahydro-1,6-naphthalenepyridin-3-yl)quinazolin-2-amine] yielded an IC50 of 1.22 nM.
Next, `COc1nc2c(cc1Nc1ncc3cccc(-c4cnn(C)c4)c3n1)CN(C)CC2` [Example 8, N-(2-methoxy-6-methyl-5,6,7,8-tetrahydro-1,6-naphthyridin-3-yl)-8-(1-methyl-1H-pyrazole-4-yl)quinazolin-2-amine]: 1.84 nM; `COc1nc2c(cc1Nc1ncc3cccc(-c4cccnc4)c3n1)CN(C)CC2` [Example 9, N-(2-methoxy-6-methyl-5,6,7,8-tetrahydro-1,6-naphthyridin-3-yl)-8-(pyridin-3-yl)quinazoline-2-amine]: 3.49 nM.
Regarding `COc1nc2c(cc1Nc1ncc3cccc(-c4ccc(=O)n(C)c4)c3n1)CN(C)CC2` [Example 10, 5-(2-((2-methoxy-6-methyl-5,6,7,8-tetrahydro-1,6-naphthyridin-3-yl)amino)quinazolin-8-yl)-1-Methylpyridin-2(1H)-one], 1.48 nM corresponded to half-maximal inhibition (IC50).
The result for `COc1nc2c(cc1Nc1ncc3cccc(C4CCOCC4)c3n1)CN(C)CC2` [Example 11, N-(2-methoxy-6-methyl-5,6,7,8-tetrahydro-1,6-naphthyridin-3-yl)-8-(tetrahydro-2H-pyran-4-base) quinazolin-2-amine] reads 1.54 nM.
As to `CNC(=O)c1ccccc1-c1cccc2cnc(Nc3cc4c(nc3OC)CCN(C)C4)nc12` [Example 12, 2-(2-((2-methoxy-6-methyl-5,6,7,8-tetrahydro-1,6-naphthyridin-3-yl)amino)quinazolin-8-yl)-N-methylbenzamide], the IC50 worked out at 37.8 nM.
Next, `COC(=O)c1cccc(-c2cccc3cnc(Nc4cc5c(nc4OC)CCN(C)C5)nc23)c1` [Example 13, 3-(2-((2-methoxy-6-methyl-5,6,7,8-tetrahydro-1,6-naphthyridin-3-yl)amino)quinazolin-8-yl) methyl benzoate]: under 0.1 nM; `CNC(=O)c1cccc(-c2cccc3cnc(Nc4cc5c(nc4OC)CCN(C)C5)nc23)c1` [Example 14, 3-(2-((2-methoxy-6-methyl-5,6,7,8-tetrahydro-1,6-naphthyridin-3-yl)amino)quinazolin-8-yl)-N-methylbenzamide]: 1.92 nM; `COc1nc2c(cc1Nc1ncc3cccc(C4=CCN(C(=O)OC(C)(C)C)CC4)c3n1)CN(C)CC2` [Example 15, 4-(2-((2-methoxy-6-methyl-5,6,7,8-tetrahydro-1,6-naphthyridin-3-yl)amino)quinazolin-8-yl)-3,6-Dihydropyridine-1(2H)-carboxylic acid tert-butyl ester]: 9.85 nM.
